# In PubChem BioAssay (NCI):
# Several values for one entry are separate records, joined by “and”; a condition that tells them apart may be missing. Equal entries are not always repeated.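 Assay format: 96-well plates, 48-hour exposure. GI50: concentration for 50% inhibition of growth. TGI: concentration producing complete growth inhibition.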
# Experiments:
# Experiment in all cases: DTP human tumour cell line panel, 48 h
# 786-0 renal = tested on: 786-0 renal
# A498 renal = tested on: A498 renal
# A549 NSCLC = tested on: A549 NSCLC
# ACHN renal = tested on: ACHN renal
# CAKI-1 renal = tested on: CAKI-1 renal
# CCRF-CEM leukemia = tested on: CCRF-CEM leukemia
# COLO 205 colon = tested on: COLO 205 colon
# DLD-1 colon = tested on: DLD-1 colon
# DMS 114 small cell lung = tested on: DMS 114 small cell lung
# DMS 273 small cell lung = tested on: DMS 273 small cell lung
# EKVX NSCLC = tested on: EKVX NSCLC
# HCC-2998 colon = tested on: HCC-2998 colon
# HCT-116 colon = tested on: HCT-116 colon
# HCT-15 colon = tested on: HCT-15 colon
# HL-60(TB) leukemia = tested on: HL-60(TB) leukemia
# HOP-18 NSCLC = tested on: HOP-18 NSCLC
# HOP-62 NSCLC = tested on: HOP-62 NSCLC
# HOP-92 NSCLC = tested on: HOP-92 NSCLC
# HT29 colon = tested on: HT29 colon
# IGROV1 ovarian = tested on: IGROV1 ovarian
# K-562 leukemia = tested on: K-562 leukemia
# KM12 colon = tested on: KM12 colon
# KM20L2 colon = tested on: KM20L2 colon
# LOX IMVI melanoma = tested on: LOX IMVI melanoma
# LXFL 529 NSCLC = tested on: LXFL 529 NSCLC
# M14 melanoma = tested on: M14 melanoma
# M19-MEL melanoma = tested on: M19-MEL melanoma
# MALME-3M melanoma = tested on: MALME-3M melanoma
# MOLT-4 leukemia = tested on: MOLT-4 leukemia
# NCI-H226 lung = tested on: NCI-H226 lung
# NCI-H23 lung = tested on: NCI-H23 lung
# NCI-H460 lung = tested on: NCI-H460 lung
# NCI-H522 lung = tested on: NCI-H522 lung
# OVCAR-3 ovarian = tested on: OVCAR-3 ovarian
# OVCAR-4 ovarian = tested on: OVCAR-4 ovarian
# OVCAR-5 ovarian = tested on: OVCAR-5 ovarian
# OVCAR-8 ovarian = tested on: OVCAR-8 ovarian
# RPMI-8226 leukemia = tested on: RPMI-8226 leukemia
# RXF 393 renal = tested on: RXF 393 renal
# RXF-631 renal = tested on: RXF-631 renal
# SF-268 CNS = tested on: SF-268 CNS
# SF-295 CNS = tested on: SF-295 CNS
# SF-539 CNS = tested on: SF-539 CNS
# SK-MEL-2 melanoma = tested on: SK-MEL-2 melanoma
# SK-MEL-28 melanoma = tested on: SK-MEL-28 melanoma
# SK-OV-3 ovarian = tested on: SK-OV-3 ovarian
# SN12C renal = tested on: SN12C renal
# SNB-19 CNS = tested on: SNB-19 CNS
# SNB-75 CNS = tested on: SNB-75 CNS
# SW-620 colon = tested on: SW-620 colon
# TK-10 renal = tested on: TK-10 renal
# U251 CNS = tested on: U251 CNS
# UACC-257 melanoma = tested on: UACC-257 melanoma
# UACC-62 melanoma = tested on: UACC-62 melanoma
# UO-31 renal = tested on: UO-31 renal
# SK-MEL-5 melanoma = tested on: SK-MEL-5 melanoma
# SNB-78 CNS = tested on: SNB-78 CNS
# SR leukemia = tested on: SR leukemia
# XF 498 CNS = tested on: XF 498 CNS
smiles,measurement,setting,value
CSc1ccc2c(cc1=O)[C@@H](NC(=O)c1cccc([N+](=O)[O-])c1)CCc1cc(O)c(O)c(O)c1-2,TGI,786-0 renal,> 100 µM
same,TGI,A498 renal,90.7 µM
same,TGI,A549 NSCLC,> 100 µM
same,TGI,ACHN renal,> 100 µM
same,TGI,CAKI-1 renal,> 100 µM
same,TGI,CCRF-CEM leukemia,> 100 µM
same,TGI,COLO 205 colon,> 100 µM
same,TGI,DLD-1 colon,> 100 µM
same,TGI,DMS 114 small cell lung,60 µM
same,TGI,DMS 273 small cell lung,> 100 µM
same,TGI,EKVX NSCLC,> 100 µM
same,TGI,HCC-2998 colon,> 100 µM
same,TGI,HCT-116 colon,35.9 µM
same,TGI,HCT-15 colon,> 100 µM
same,TGI,HL-60(TB) leukemia,> 100 µM
same,TGI,HOP-18 NSCLC,> 100 µM
same,TGI,HOP-62 NSCLC,> 100 µM
same,TGI,HOP-92 NSCLC,> 100 µM
same,TGI,HT29 colon,> 100 µM
same,TGI,IGROV1 ovarian,> 100 µM
same,TGI,K-562 leukemia,77.6 µM
same,TGI,KM12 colon,> 100 µM
same,TGI,KM20L2 colon,56.5 µM
same,TGI,LOX IMVI melanoma,32.2 µM
same,TGI,LXFL 529 NSCLC,> 100 µM
same,TGI,M14 melanoma,> 100 µM
same,TGI,M19-MEL melanoma,49.4 µM
same,TGI,MALME-3M melanoma,> 100 µM
same,TGI,MOLT-4 leukemia,53.1 µM
same,TGI,NCI-H226 lung,57.9 µM
same,TGI,NCI-H23 lung,> 100 µM
same,TGI,NCI-H460 lung,> 100 µM
same,TGI,NCI-H522 lung,68.2 µM
same,TGI,OVCAR-3 ovarian,> 100 µM
same,TGI,OVCAR-4 ovarian,> 100 µM
same,TGI,OVCAR-5 ovarian,> 100 µM
same,TGI,OVCAR-8 ovarian,> 100 µM
same,TGI,RPMI-8226 leukemia,> 100 µM
same,TGI,RXF 393 renal,> 100 µM
same,TGI,RXF-631 renal,> 100 µM
same,TGI,SF-268 CNS,> 100 µM
same,TGI,SF-295 CNS,> 100 µM
same,TGI,SF-539 CNS,62.9 µM
same,TGI,SK-MEL-2 melanoma,> 100 µM
same,TGI,SK-MEL-28 melanoma,> 100 µM
same,TGI,SK-OV-3 ovarian,> 100 µM
same,TGI,SN12C renal,88.9 µM
same,TGI,SNB-19 CNS,> 100 µM
same,TGI,SNB-75 CNS,86.1 µM
same,TGI,SW-620 colon,61.1 µM
same,TGI,TK-10 renal,> 100 µM
same,TGI,U251 CNS,51.5 µM
same,TGI,UACC-257 melanoma,> 100 µM
same,TGI,UACC-62 melanoma,39.2 µM
same,TGI,UO-31 renal,> 100 µM
CSc1nc(-c2ccc(Cl)cc2)c(C#N)c(=O)n1C1OC(COC(C)=O)C(OC(C)=O)C(OC(C)=O)C1OC(C)=O (centres undefined),TGI,786-0 renal,> 100 µM
same,GI50,A498 renal,17.6 µM and > 100 µM
same,TGI,A498 renal,38.9 µM and > 100 µM
same,TGI,A549 NSCLC,> 100 µM
same,GI50,ACHN renal,24 µM and > 100 µM
same,TGI,ACHN renal,> 100 µM
same,TGI,CAKI-1 renal,> 100 µM
same,GI50,CCRF-CEM leukemia,> 7.5 µM and 65.1 µM
same,TGI,CCRF-CEM leukemia,> 100 µM
same,TGI,COLO 205 colon,> 100 µM
same,TGI,DLD-1 colon,> 100 µM
same,GI50,DMS 114 small cell lung,24.6 µM and > 100 µM
same,TGI,DMS 114 small cell lung,> 100 µM
same,TGI,DMS 273 small cell lung,> 100 µM
same,TGI,EKVX NSCLC,> 100 µM
same,TGI,HCC-2998 colon,> 100 µM
same,GI50,HCT-116 colon,23.1 µM and > 100 µM
same,TGI,HCT-116 colon,> 100 µM
same,TGI,HCT-15 colon,> 100 µM
same,TGI,HL-60(TB) leukemia,> 100 µM
same,TGI,HOP-18 NSCLC,> 100 µM
same,GI50,HOP-62 NSCLC,23.6 µM and > 100 µM
same,TGI,HOP-62 NSCLC,57.1 µM and > 100 µM
same,GI50,HOP-92 NSCLC,10.4 µM and 4.43 µM
same,TGI,HOP-92 NSCLC,32 µM and 82.7 µM
same,GI50,HT29 colon,29.3 µM and > 100 µM
same,TGI,HT29 colon,> 100 µM
same,TGI,IGROV1 ovarian,> 100 µM
same,TGI,K-562 leukemia,> 100 µM
same,TGI,KM12 colon,> 100 µM
same,GI50,KM20L2 colon,35 µM and > 100 µM
same,TGI,KM20L2 colon,> 100 µM
same,GI50,LXFL 529 NSCLC,26 µM and > 100 µM
same,TGI,LXFL 529 NSCLC,> 100 µM
same,GI50,M14 melanoma,34.7 µM and 88.9 µM
same,TGI,M14 melanoma,> 100 µM
same,GI50,M19-MEL melanoma,34.3 µM and > 100 µM
same,TGI,M19-MEL melanoma,> 100 µM
same,GI50,MALME-3M melanoma,30.7 µM and 77.8 µM
same,TGI,MALME-3M melanoma,> 100 µM
same,TGI,MOLT-4 leukemia,> 100 µM
same,TGI,NCI-H226 lung,> 100 µM
same,GI50,NCI-H23 lung,22.2 µM and > 100 µM
same,TGI,NCI-H23 lung,> 100 µM
same,GI50,NCI-H460 lung,27.3 µM and > 100 µM
same,TGI,NCI-H460 lung,> 100 µM
same,GI50,NCI-H522 lung,12.1 µM and > 100 µM
same,TGI,NCI-H522 lung,29.2 µM and > 100 µM
same,TGI,OVCAR-3 ovarian,33.2 µM
same,GI50,OVCAR-4 ovarian,> 100 µM
same,TGI,OVCAR-4 ovarian,> 100 µM
same,GI50,OVCAR-5 ovarian,31.3 µM and > 100 µM
same,TGI,OVCAR-5 ovarian,> 100 µM
same,TGI,OVCAR-8 ovarian,> 100 µM
same,GI50,RPMI-8226 leukemia,34.6 µM and > 100 µM
same,TGI,RPMI-8226 leukemia,> 100 µM
same,GI50,RXF 393 renal,10.6 µM and > 100 µM
same,TGI,RXF 393 renal,25.6 µM and > 100 µM
same,GI50,SF-268 CNS,12.4 µM and > 100 µM
same,TGI,SF-268 CNS,55.2 µM and > 100 µM
same,GI50,SF-295 CNS,14.8 µM and > 100 µM
same,TGI,SF-295 CNS,39 µM and > 100 µM
same,GI50,SF-539 CNS,15.2 µM and > 100 µM
same,TGI,SF-539 CNS,31.6 µM and > 100 µM
same,TGI,SK-MEL-2 melanoma,> 100 µM
same,GI50,SK-MEL-28 melanoma,27.6 µM and > 100 µM
same,TGI,SK-MEL-28 melanoma,> 100 µM
same,TGI,SK-MEL-5 melanoma,> 100 µM
same,GI50,SK-OV-3 ovarian,25.3 µM and > 100 µM
same,TGI,SK-OV-3 ovarian,70.3 µM and > 100 µM
same,TGI,SN12C renal,> 100 µM
same,GI50,SNB-19 CNS,13.9 µM and > 100 µM
same,TGI,SNB-19 CNS,39.4 µM and > 100 µM
same,GI50,SNB-75 CNS,14.8 µM and > 100 µM
same,TGI,SNB-75 CNS,31.9 µM and > 100 µM
same,GI50,SNB-78 CNS,12.4 µM and > 100 µM
same,TGI,SNB-78 CNS,39.6 µM and > 100 µM
same,TGI,SR leukemia,> 100 µM
same,TGI,SW-620 colon,> 100 µM
same,TGI,TK-10 renal,> 100 µM
same,GI50,U251 CNS,20.6 µM and > 100 µM
same,TGI,U251 CNS,71.6 µM and > 100 µM
same,GI50,UACC-257 melanoma,14.5 µM and > 100 µM
same,TGI,UACC-257 melanoma,38.8 µM and > 100 µM
same,GI50,UACC-62 melanoma,30.5 µM and > 100 µM
same,TGI,UACC-62 melanoma,> 100 µM
same,GI50,UO-31 renal,10.4 µM and > 100 µM
same,TGI,UO-31 renal,23.5 µM and > 100 µM
same,TGI,XF 498 CNS,> 100 µM
